Results taken from ChEMBL document CHEMBL5223123, “Synthesis and pharmacological characterization of multiply substituted 2H-chromene derivatives as P2Y6 receptor antagonists” (Bioorg Med Chem Lett, 2022).
Blank lines part the entries; values can stand above or below the molecule they belong to.

Legend:
[1] = target: P2Y purinoceptor 4 (Homo sapiens) (UniProt P51582); experiment: Antagonist activity at human P2Y4R expressed in human 1321N1 cells assessed as inhibition of […] calcium mobilization at 100 uM by FLIPR assay relative to control; type: cell-based; parameters: scale not given: the % may be the effect or the level left
P2Y purinoceptor 4 (Homo sapiens), sequence (P51582 whole entry): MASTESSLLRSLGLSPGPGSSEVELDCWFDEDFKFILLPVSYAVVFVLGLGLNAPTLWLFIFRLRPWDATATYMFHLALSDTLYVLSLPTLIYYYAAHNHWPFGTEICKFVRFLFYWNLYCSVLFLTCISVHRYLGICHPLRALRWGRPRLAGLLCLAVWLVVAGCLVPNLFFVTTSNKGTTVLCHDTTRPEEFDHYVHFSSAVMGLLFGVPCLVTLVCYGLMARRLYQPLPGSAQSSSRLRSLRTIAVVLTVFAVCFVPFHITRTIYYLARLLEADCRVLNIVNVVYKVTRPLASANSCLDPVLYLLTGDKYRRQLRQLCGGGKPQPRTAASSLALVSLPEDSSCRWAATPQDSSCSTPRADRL

[2] = test system: HEK293; experiment: Cytotoxicity against HEK293 cells assessed as reduction in cell viability at 100 uM measured after 24 hrs by MTT assay relative to control; type: toxicity, cell-based; settings: human, hek293, 24 h
[3] = target: P2Y purinoceptor 2 (Homo sapiens) (UniProt P41231); experiment: Antagonist activity at human P2Y2R expressed in human 1321N1 cells assessed as inhibition of […] calcium mobilization at 100 uM by FLIPR assay relative to control; type: cell-based; parameters: scale not given: the % may be the effect or the level left
P2Y purinoceptor 2 (Homo sapiens), sequence (P41231 whole entry): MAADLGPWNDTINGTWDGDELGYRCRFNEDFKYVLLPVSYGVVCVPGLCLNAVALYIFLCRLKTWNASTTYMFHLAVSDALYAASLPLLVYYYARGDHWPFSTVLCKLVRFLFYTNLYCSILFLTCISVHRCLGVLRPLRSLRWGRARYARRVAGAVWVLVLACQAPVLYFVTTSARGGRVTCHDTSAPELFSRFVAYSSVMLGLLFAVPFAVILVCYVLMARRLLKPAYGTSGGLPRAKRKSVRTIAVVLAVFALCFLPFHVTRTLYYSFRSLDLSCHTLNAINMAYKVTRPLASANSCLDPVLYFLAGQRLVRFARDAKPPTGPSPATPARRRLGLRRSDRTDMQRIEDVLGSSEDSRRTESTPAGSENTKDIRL

[4] = target: P2Y purinoceptor 1 (Meleagris gallopavo) (UniProt P49652); experiment: Antagonist activity at Meleagris P2Y1R expressed in human 1321N1 cells assessed as inhibition of […] calcium mobilization at 100 uM by FLIPR assay relative to control; type: cell-based; parameters: scale not given: the % may be the effect or the level left
P2Y purinoceptor 1 (Meleagris gallopavo), sequence (P49652 whole entry): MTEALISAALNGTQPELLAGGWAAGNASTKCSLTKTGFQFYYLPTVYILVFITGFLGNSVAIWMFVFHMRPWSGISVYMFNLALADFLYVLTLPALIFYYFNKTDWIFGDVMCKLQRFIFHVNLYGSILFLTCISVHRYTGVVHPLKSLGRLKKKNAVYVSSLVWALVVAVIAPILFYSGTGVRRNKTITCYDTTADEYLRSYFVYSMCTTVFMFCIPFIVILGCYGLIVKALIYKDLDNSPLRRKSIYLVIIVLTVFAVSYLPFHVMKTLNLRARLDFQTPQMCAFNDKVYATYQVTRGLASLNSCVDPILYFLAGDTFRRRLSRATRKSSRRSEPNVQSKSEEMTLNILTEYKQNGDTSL

[5] = target: P2Y purinoceptor 6 (Mus musculus, UniProt Q9ERK9); experiment: Antagonist activity at mouse P2Y6R expressed in human 1321N1 cells assessed as inhibition of […] calcium mobilization by FLIPR assay; type: cell-based
P2Y purinoceptor 6 (Mus musculus, UniProt Q9ERK9), sequence (Q9ERK9 whole entry): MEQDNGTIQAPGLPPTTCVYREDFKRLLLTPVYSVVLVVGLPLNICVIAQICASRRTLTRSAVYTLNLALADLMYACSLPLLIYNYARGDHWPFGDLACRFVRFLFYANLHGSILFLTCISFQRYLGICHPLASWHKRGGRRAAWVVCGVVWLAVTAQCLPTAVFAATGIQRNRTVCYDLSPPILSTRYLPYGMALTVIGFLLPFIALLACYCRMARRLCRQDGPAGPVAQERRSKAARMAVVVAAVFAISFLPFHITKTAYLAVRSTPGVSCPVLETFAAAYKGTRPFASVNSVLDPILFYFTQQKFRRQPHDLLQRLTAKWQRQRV

[6] = target: P2Y purinoceptor 6 (Mus musculus) (UniProt Q9ERK9); experiment: Antagonist activity at mouse P2Y6R expressed in human 1321N1 cells assessed as inhibition of […] calcium mobilization at 20 uM by FLIPR assay relative to control; type: cell-based; parameters: scale not given: the % may be the effect or the level left
P2Y purinoceptor 6 (Mus musculus), sequence (Q9ERK9 whole entry): as above

[7] = target: 5-hydroxytryptamine receptor 2A (Homo sapiens, UniProt P28223); experiment: Binding affinity to 5-HT2A (unknown origin)
5-hydroxytryptamine receptor 2A, sequence (P28223 whole entry): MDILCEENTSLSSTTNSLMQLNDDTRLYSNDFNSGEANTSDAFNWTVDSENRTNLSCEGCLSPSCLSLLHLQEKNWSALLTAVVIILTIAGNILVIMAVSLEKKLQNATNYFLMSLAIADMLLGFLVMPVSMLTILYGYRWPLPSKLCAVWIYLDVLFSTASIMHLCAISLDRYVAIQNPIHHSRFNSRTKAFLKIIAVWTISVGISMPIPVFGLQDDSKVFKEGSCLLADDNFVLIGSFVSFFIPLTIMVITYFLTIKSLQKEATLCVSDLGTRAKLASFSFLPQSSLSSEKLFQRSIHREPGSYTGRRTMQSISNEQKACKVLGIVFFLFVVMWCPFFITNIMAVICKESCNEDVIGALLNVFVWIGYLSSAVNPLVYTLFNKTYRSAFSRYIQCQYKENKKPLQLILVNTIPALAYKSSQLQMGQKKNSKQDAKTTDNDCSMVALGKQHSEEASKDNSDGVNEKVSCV

[8] = target: Histamine H1 receptor (Homo sapiens, UniProt P35367); experiment: Binding affinity to histamine H1 receptor (unknown origin)
Histamine H1 receptor, sequence (P35367 whole entry): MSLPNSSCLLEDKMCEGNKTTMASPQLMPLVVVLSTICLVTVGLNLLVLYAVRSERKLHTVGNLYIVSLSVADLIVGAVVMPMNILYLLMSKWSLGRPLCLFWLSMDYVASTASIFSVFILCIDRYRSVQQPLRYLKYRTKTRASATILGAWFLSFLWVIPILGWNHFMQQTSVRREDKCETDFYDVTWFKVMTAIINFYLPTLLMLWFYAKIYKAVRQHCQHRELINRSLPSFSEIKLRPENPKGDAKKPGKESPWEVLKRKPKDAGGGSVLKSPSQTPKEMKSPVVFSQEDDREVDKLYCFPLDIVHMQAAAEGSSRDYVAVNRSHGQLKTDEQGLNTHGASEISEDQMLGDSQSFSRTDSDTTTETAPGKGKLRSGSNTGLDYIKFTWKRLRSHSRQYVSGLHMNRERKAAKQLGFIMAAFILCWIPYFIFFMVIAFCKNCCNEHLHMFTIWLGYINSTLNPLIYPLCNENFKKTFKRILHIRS

[9] = target: T1, P2Y purinoceptor 6 (Homo sapiens, UniProt Q15077); experiment: Antagonist activity at human P2Y6R expressed in human 1321N1 cells assessed as inhibition of […] calcium mobilization by FLIPR assay; type: cell-based
T1 sequence (Q15077 whole entry): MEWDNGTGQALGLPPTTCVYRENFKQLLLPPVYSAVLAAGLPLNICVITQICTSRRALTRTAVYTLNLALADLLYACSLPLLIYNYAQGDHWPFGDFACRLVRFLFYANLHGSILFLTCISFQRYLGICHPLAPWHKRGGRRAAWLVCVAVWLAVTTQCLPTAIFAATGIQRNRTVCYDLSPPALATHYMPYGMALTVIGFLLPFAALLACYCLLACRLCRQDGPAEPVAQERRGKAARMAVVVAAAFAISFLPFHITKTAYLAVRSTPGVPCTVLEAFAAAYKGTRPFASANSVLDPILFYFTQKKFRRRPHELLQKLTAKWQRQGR

[10] = target: Sigma non-opioid intracellular receptor 1 (Homo sapiens, UniProt Q99720); experiment: Binding affinity to sigma 1 receptor (unknown origin)
Sigma non-opioid intracellular receptor 1, sequence (Q99720 whole entry): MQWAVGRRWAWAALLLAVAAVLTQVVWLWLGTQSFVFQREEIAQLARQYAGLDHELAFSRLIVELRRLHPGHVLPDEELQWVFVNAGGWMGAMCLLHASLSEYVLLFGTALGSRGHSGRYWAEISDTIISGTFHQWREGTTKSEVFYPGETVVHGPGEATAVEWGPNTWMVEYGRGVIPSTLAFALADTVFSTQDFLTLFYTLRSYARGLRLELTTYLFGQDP

[11] = target: Beta-3 adrenergic receptor (Homo sapiens, UniProt P13945); experiment: Binding affinity to adrenergic beta 3 (unknown origin)
Beta-3 adrenergic receptor, sequence (P13945 whole entry): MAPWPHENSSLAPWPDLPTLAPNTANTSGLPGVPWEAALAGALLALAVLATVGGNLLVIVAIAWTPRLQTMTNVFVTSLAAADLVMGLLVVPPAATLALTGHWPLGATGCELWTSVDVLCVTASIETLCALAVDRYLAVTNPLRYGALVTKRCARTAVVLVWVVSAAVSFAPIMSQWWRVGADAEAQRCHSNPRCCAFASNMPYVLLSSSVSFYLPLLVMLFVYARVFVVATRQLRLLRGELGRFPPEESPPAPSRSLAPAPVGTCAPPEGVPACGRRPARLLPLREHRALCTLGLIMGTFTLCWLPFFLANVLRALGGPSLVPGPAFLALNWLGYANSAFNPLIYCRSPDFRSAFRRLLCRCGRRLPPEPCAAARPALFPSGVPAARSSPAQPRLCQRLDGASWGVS

[12] = target: T2, Alpha-2C adrenergic receptor (Homo sapiens, UniProt P18825); experiment: Binding affinity to adrenergic alpha 2c receptor (unknown origin)
T2 sequence (P18825 whole entry): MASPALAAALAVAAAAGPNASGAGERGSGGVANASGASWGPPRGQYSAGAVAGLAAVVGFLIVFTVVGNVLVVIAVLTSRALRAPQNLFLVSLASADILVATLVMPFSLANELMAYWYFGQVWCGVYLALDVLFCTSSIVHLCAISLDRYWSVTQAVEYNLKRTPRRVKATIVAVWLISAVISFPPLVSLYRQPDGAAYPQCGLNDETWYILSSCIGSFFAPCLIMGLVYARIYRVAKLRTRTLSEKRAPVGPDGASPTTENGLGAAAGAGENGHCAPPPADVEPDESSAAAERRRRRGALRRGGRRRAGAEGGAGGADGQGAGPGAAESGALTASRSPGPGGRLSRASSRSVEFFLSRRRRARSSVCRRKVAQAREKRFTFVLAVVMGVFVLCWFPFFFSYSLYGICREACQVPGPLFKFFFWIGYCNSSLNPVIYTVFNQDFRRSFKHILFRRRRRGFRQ

[13] = target: D(3) dopamine receptor (Homo sapiens, UniProt P35462); experiment: Binding affinity to dopamine 3 receptor (unknown origin)
D(3) dopamine receptor, sequence (P35462 whole entry): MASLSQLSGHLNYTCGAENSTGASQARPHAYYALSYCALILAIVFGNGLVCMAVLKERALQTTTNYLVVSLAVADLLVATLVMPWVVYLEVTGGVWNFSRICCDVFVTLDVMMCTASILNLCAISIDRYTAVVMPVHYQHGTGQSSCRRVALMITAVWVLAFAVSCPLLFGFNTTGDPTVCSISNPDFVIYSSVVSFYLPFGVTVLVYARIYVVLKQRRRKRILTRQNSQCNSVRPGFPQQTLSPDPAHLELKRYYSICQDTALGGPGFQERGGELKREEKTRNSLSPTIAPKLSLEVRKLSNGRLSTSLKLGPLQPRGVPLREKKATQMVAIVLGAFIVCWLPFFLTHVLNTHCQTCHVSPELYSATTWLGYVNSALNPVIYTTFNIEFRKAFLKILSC

[14] = target: D(1B) dopamine receptor (Homo sapiens, UniProt P21918); experiment: Binding affinity to dopamine 5 receptor (unknown origin)
D(1B) dopamine receptor, sequence (P21918 whole entry): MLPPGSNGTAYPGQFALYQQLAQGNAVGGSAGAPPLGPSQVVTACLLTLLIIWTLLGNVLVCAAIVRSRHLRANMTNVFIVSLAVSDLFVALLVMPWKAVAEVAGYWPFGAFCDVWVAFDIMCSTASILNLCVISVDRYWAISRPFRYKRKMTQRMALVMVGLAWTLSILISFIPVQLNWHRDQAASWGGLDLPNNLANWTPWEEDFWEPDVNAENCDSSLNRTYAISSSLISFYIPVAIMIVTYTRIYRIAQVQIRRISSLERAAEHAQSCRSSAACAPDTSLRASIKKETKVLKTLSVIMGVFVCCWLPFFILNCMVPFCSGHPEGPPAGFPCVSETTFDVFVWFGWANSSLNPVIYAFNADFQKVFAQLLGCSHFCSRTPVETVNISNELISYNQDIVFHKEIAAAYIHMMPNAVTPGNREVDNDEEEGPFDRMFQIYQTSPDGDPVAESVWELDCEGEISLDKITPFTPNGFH

[15] = target: Sigma intracellular receptor 2 (Homo sapiens, UniProt Q5BJF2); experiment: Binding affinity to sigma 2 receptor (unknown origin)
Sigma intracellular receptor 2, sequence (Q5BJF2 whole entry): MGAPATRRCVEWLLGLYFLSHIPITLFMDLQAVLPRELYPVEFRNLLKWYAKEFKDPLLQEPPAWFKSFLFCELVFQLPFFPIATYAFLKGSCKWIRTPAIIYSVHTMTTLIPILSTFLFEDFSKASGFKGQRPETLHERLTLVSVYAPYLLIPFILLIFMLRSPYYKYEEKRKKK

[16] = target: T1, P2Y purinoceptor 6; experiment: Antagonist activity at human P2Y6R expressed in human 1321N1 cells assessed as inhibition of […] calcium mobilization at 100 uM by FLIPR assay relative to control; type: cell-based; parameters: scale not given: the % may be the effect or the level left

IC50 [5]: 20.2 µM
Structure (SMILES): O=[N+]([O-])C1=Cc2cc(Br)ccc2OC1C(F)(F)F (racemic)

IC50 [5]: 28.7 µM
Structure (SMILES): O=[N+]([O-])C1=Cc2cc(I)ccc2OC1C(F)(F)F (racemic)

IC50 [5]: 185 µM
Structure (SMILES): O=[N+]([O-])C1=Cc2ccccc2OC1C(F)(F)F (racemic)

IC50 [5]: 15.2 µM | IC50 [9]: 3.69 µM
Structure (SMILES): O=[N+]([O-])C1=Cc2cccc(Cl)c2OC1C(F)(F)F (racemic)

IC50 [9]: 5.35 µM
Structure (SMILES): O=[N+]([O-])C1=Cc2cc(C#Cc3ccc(Cl)cc3)ccc2OC1C(F)(F)F (racemic)

Ki [13]: 780 nM | Ki [14]: 2790 nM | IC50 [5]: 30.8 µM
Structure (SMILES): O=[N+]([O-])C1=Cc2cc(Cl)ccc2OC1C(F)(F)F (racemic)

IC50 [5]: 17.8 µM | IC50 [9]: 2.99 µM
Structure (SMILES): O=[N+]([O-])C1=Cc2cc(F)cc(F)c2OC1C(F)(F)F (racemic)

IC50 [9]: 15.7 µM
Structure (SMILES): O=[N+]([O-])C1=Cc2c(Cl)cccc2OC1C(F)(F)F (racemic)

IC50 [5]: 17.6 µM
Structure (SMILES): O=[N+]([O-])C1=Cc2cccc(I)c2OC1C(F)(F)F (racemic)

IC50 [9]: 13.1 µM
Structure (SMILES): O=[N+]([O-])C1=Cc2c(I)cccc2OC1C(F)(F)F (racemic)

IC50 [9]: 8.86 µM
Structure (SMILES): O=[N+]([O-])C1=Cc2cc(C#Cc3ccc(F)cc3)ccc2OC1C(F)(F)F (racemic)

IC50 [5]: 14.5 µM
Structure (SMILES): O=[N+]([O-])C1=Cc2cc(F)cc(Br)c2OC1C(F)(F)F (racemic)

Ki [15]: 8.6 µM
Structure (SMILES): O=[N+]([O-])C1=Cc2cc(F)ccc2OC1C(F)(F)F (racemic)

IC50 [9]: 7.98 µM
Structure (SMILES): O=[N+]([O-])C1=Cc2ccc(Cl)cc2OC1C(F)(F)F (racemic)

More lines, now with the values behind:

Structure (SMILES): C[Si](C)(C)C#Cc1ccc2c(c1)C=C([N+](=O)[O-])C(C(F)(F)F)O2 (racemic)
Activity [1]: < 30% | Activity [2]: 58% | Activity [3]: < 30% | Activity [4]: < 30%

Structure (SMILES): O=C(O)c1ccc(C#Cc2ccc3c(c2)C=C([N+](=O)[O-])C(C(F)(F)F)O3)cc1 (racemic)
Activity [6]: 14% | Activity [1]: < 30% | Activity [2]: 95% | Activity [3]: < 30% | Activity [4]: < 30%

Structure (SMILES): CC[Si](C#Cc1ccc2c(c1)C=C([N+](=O)[O-])C(C(F)(F)F)O2)(CC)CC (racemic)
Activity [1]: < 30% | Activity [2]: 73% | Activity [3]: < 30% | IC50 [5]: 4.94 µM | Activity [4]: < 30%

Structure (SMILES): CC[Si](C#Cc1cccc2c1OC(C(F)(F)F)C([N+](=O)[O-])=C2)(CC)CC (racemic)
Activity [1]: < 30% | Ki [7]: 4.2 µM | Activity [2]: 83% | Ki [8]: 3.5 µM | Activity [3]: < 30% | IC50 [5]: 6.15 µM | Activity [4]: 39.2% | IC50 [9]: 0.461 µM | Ki [10]: 6.4 µM | Ki [11]: 7.3 µM | Ki [12]: 1100 nM

Structure (SMILES): CC[Si](C#Cc1cccc2c1C=C([N+](=O)[O-])C(C(F)(F)F)O2)(CC)CC (racemic)
IC50 [9]: 4.77 µM

Structure (SMILES): O=[N+]([O-])C1=Cc2cc(C#Cc3ccc(CO)cc3)ccc2OC1C(F)(F)F (racemic)
Ki [14]: 600 nM | IC50 [5]: 31.6 µM

Structure (SMILES): CC1Oc2ccc(I)cc2C=C1[N+](=O)[O-] (racemic)
IC50 [9]: 36.8 µM

Structure (SMILES): O=[N+]([O-])C1=Cc2cc(I)ccc2OC1C1CCC1 (racemic)
IC50 [9]: 33.1 µM

Structure (SMILES): CC[Si](C#Cc1ccc2c(c1)C=C([N+](=O)[O-])C(C1CC1)O2)(CC)CC (racemic)
Activity ([16]; filed as antagonist): 50%

Structure (SMILES): FC(F)(F)C1Oc2ccc(Cl)cc2-c2n[nH]nc21 (racemic)
Activity ([16]; filed as antagonist): 43%

Structure (SMILES): NC1Cc2ccccc2OC1C(F)(F)F (racemic)
Activity [16]: 0%
